In data set [1] the test system is glucose-6-phosphatase (G6Pase) activity in H4IIE hepatocytes. The data set is described as follows: Glucose-6-phosphatase activity in H4IIE hepatocytes. It is filed as cell-based, murine. Particulars: 16 h; for suppression of G6Pase activity: 12.5 μM, result in words. Here is the method: 2.4 Glucose-6-phosphatase activity in H4IIE hepatocytes: H4IIE murine hepatocytes (American Type Culture Collection) were cultured to confluence in 12-well plates in DMEM supplemented with 10% FBS and antibiotics. […] Effects of test compounds on cellular viability were assessed by measuring the release of lactate dehydrogenase (LDH) into the culture medium at the end of a 16 h treatment using a commercial kit (Cytotoxicity Detection Kit; Roche Diagnostics; Laval, QC) as per the manufacturer's instructions; LDH release was expressed as % of total (medium+lysate) LDH content for each well. Cells were also routinely inspected for abnormal morphology by phase-contrast microscopy at the conclusion of the treatment period. Following treatment, cells were washed in HEPES-buffered saline (10 mM HEPES, pH 7.4, 150 mM NaCl) at 37° C. Glucose-6-phosphatase (G6Pase) activity was assessed by measuring the rate of glucose formation in the presence of a non-limiting amount of glucose-6-phosphate (G6P), as done by others [39B, 40B]. Glucose production was measured with a commercial glucose assay kit (AutoKit Glucose; Wako Diagnostics; Richmond, Va.). Two hundred μl of AutoKit Glucose buffer solution diluted 1:4 in water were added to each well. Cells were then lysed by the addition of 50 μl of 0.05% Triton X-100 in similarly diluted AutoKit Glucose buffer solution. […] At 37° C., after which time 500 μl of AutoKit Glucose color reagent were added and incubation was continued for exactly 5 min. Samples were then rapidly transferred to microcentrifuge tubes. Fifty μl were removed for assay of total protein content in order to account for effects of test compounds on cellular viability or proliferation [41B]. A commercial protein assay kit based on the Bradford method was used (Protein Assay; Bio-Rad Laboratories; Hercules, Calif.). […] The remaining volume was centrifuged at 3000×g for 5 min. Absorbance of the supernatant was measured at 505 nm at ambient temperature and glucose concentration was calculated from a standard curve performed in parallel. Control wells without exogenous G6P were included on each plate for each treatment condition and activity measured from these wells was subtracted from activity measured in the presence of exogenous G6P. G6Pase activity calculated in this way was then expressed normalized to protein content on a well-by-well basis. Two independent experiments in cells of different passages were performed for each of the selected test compounds, with four to six replicates per condition per experiment.
Protocol for assay of glucose-6-phosphatase activity in H4IIE or other hepatocytes: H4IIE murine hepatocytes (American Type Culture Collection) may be cultured to confluence in 12-well plates in Dulbecco's modified Eagle's medium (DMEM) supplemented with 10% fetal bovine serum (FBS), and antibiotics. […] Effects of test compounds on cellular viability may be assessed by measuring the release of lactate dehydrogenase (LDH) into the culture medium at the end of a 16 hour treatment using a commercial kit (e.g., Cytotoxicity Detection Kit; Roche Diagnostics; Laval, QC) as per the manufacturer's instructions; LDH release may be expressed as % of total (i.e., medium+lysate) LDH content for each well. Cells may also be routinely inspected for abnormal morphology by phase-contrast microscopy at the conclusion of the treatment period. Following treatment, cells may be washed in HEPES-buffered saline (10 mM HEPES, pH 7.4, 150 mM NaCl) at 37° C. Glucose-6-phosphatase (G6Pase) activity may be assessed by measuring the rate of glucose formation in the presence of a non-limiting amount of glucose-6-phosphate (G6P). Glucose production may be measured with a commercial glucose assay kit (e.g., AutoKit Glucose; Wako Diagnostics; Richmond, Va.). Two hundred μl of AutoKit Glucose buffer solution diluted 1:4 in water may be added to each well.

Data set [2] concerns isolated rat liver mitochondria. The data set is described as follows: Residual functional capacity / inhibitory effect on ADP-stimulated (state 3) oxygen consumption. It is filed as biochemical. Particulars: for Residual capacity (%): functional capacity (state 3 minus state 4 rate) as % of vehicle-treated mitochondria.
Data set [3] has the same test system. In words: Uncoupling activity: increase in basal (state 4) oxygen consumption by oxygraphy. It is filed as biochemical. Particulars: for Measured Uncoupling Activity (% uncoupling ± SEM @ 100 μM): Suppl. Table 1, 2-3 mitochondrial preparations; for Measured Uncoupling (% uncoupling ± SEM @ 100 μM): Table 1A, relative to ADP-stimulated respiration = 100%; for Uncoupling (%): increase in basal (state 4) oxygen consumption as % of average ADP-stimulated (state 3) rate in vehicle-treated mitochondria.

Data set [4] relates to differentiated C2C12 skeletal muscle cells. In words: 3H-deoxyglucose uptake in C2C12 myotubes. It is filed as cell-based, murine. Particulars: 18 h. The protocol:
2.3 ^3H-deoxyglucose uptake in C2C12 myotubes: Cell culture and the ^3H-deoxyglucose uptake assay were performed as previously described [34B, 35B, 37B]. Briefly, C2C12 murine skeletal myoblasts (American Type Culture Collection; Manassas, Va.) were cultured under standard conditions in 12-well plates. Cells were proliferated to 80% confluence in high-glucose Dulbecco's modified Eagle's medium (DMEM; Wisent; St-Bruno, QC) supplemented with 10% fetal bovine serum (FBS; Wisent), 10% horse serum (HS), and antibiotics. Differentiation into multinucleated myotubes was then promoted with DMEM supplemented with 2% HS and antibiotics. All uptake assays were performed on 7-day differentiated cells, and treatments were timed accordingly. […] DMSO concentration was fixed at 0.1% for all conditions. Cells were routinely inspected for abnormal morphology by phase-contrast microscopy at the conclusion of the treatment period. […] Cells were then washed twice in glucose-free KPB at 37° C. before incubation for exactly 10 min at 37° C. in glucose-free KPB containing 0.5 μCi/ml 2-deoxy-D-[1-^3H]glucose (Amersham Biosciences; Buckinghamshire, UK). Cells were then placed on ice and immediately washed three times with ice-cold KPB. Cells were inspected for monolayer detachment and lysed in 0.1 N NaOH with scraping. […] Three independent experiments of 18 h treatment duration were performed for each of the selected test compounds, with three replicates per condition per experiment. Vehicle-control and 50 μM 2,4-dinitrophenol conditions were included on every plate. Some compounds were also tested at 50 μM under the following conditions: a 15 h treatment with vehicle only followed by a 3 h treatment with the test compound; a 15 h treatment with the test compound followed by a 3 h repeat treatment.
Protocol for ^3H-deoxyglucose uptake assay in C2C12 or other skeletal muscle cells; C2C12 murine skeletal myoblasts (American Type Culture Collection; Manassas, Va.) may be cultured under standard conditions in 12-well plates. Cells may be proliferated to 80% confluence in high-glucose Dulbecco's modified Eagle's medium (DMEM) supplemented with 10% fetal bovine serum (FBS), 10% horse serum (HS), and antibiotics. Differentiation into multinucleated myotubes may be then promoted with DMEM supplemented with 2% HS and antibiotics. All uptake assays may be performed on 7-day differentiated cells, and treatment onset may be timed accordingly. Cells may be treated with reference substances (such as metformin (100 or 400 μM), phenformin (100 μM), or 2,4-dinitrophenol 10-100 μM), compounds described herein, or vehicle (DMSO) in complete differentiation medium. DMSO concentration may be fixed at 0.1% for all conditions. Cells may be routinely inspected for abnormal morphology by phase-contrast microscopy at the conclusion of the treatment period. […] Cells may be then washed twice in glucose-free KPB at 37° C. before incubation for exactly 10 min at 37° C. in glucose-free KPB containing 0.5 μCi/ml 2-deoxy-D-[1-3H]glucose (Amersham Biosciences; Buckinghamshire, UK). Cells may be then placed on ice and immediately washed three times with ice-cold KPB. Cells may be inspected for monolayer detachment and lysed in 0.1 N NaOH with scraping. […] Three or more independent experiments of 18 hours treatment duration may be performed for each test compound, with three or more replicates per condition per experiment. Vehicle-control and 2,4-dinitrophenol conditions may be included on every plate for the purpose of standardizing.

In another data set the test system is C2C12 myotubes. In words: Morphology / monolayer detachment inspection of treated myotubes. The data set is classed as cell-based, murine. Particulars: 100 μM, 18 h. Here is the method: 2.3 ^3H-deoxyglucose uptake in C2C12 myotubes: Cell culture and the ^3H-deoxyglucose uptake assay were performed as previously described [34B, 35B, 37B]. Briefly, C2C12 murine skeletal myoblasts (American Type Culture Collection; Manassas, Va.) were cultured under standard conditions in 12-well plates. Cells were proliferated to 80% confluence in high-glucose Dulbecco's modified Eagle's medium (DMEM; Wisent; St-Bruno, QC) supplemented with 10% fetal bovine serum (FBS; Wisent), 10% horse serum (HS), and antibiotics. Differentiation into multinucleated myotubes was then promoted with DMEM supplemented with 2% HS and antibiotics. All uptake assays were performed on 7-day differentiated cells, and treatments were timed accordingly. […] DMSO concentration was fixed at 0.1% for all conditions. Cells were routinely inspected for abnormal morphology by phase-contrast microscopy at the conclusion of the treatment period. […] Cells were then washed twice in glucose-free KPB at 37° C. before incubation for exactly 10 min at 37° C. in glucose-free KPB containing 0.5 μCi/ml 2-deoxy-D-[1-^3H]glucose (Amersham Biosciences; Buckinghamshire, UK). Cells were then placed on ice and immediately washed three times with ice-cold KPB. Cells were inspected for monolayer detachment and lysed in 0.1 N NaOH with scraping. […]

Bounds are passed on as bounds.

For `O=C(/C=C/c1ccc(O)c(O)c1)c1ccc(O)cc1O` [butein], the “suppression of G6Pase activity” value in data set [1] is listed as “exceeding the effect of metformin at 400 μM”. The “inhibitory effect on oxidative phosphorylation” value in data set [2] (50 μM (FIG. 19)) is given as “inhibition of ADP-stimulated consumption”. In addition, the “Inhibitory effect (%)” value in data set [2] (test conc. 25 μM) is 23%; in data set [2] (test conc. 100 μM), 29%. Moreover, the “Residual capacity (%)” value in data set [2] (test conc. 25 μM) came to 51 ± 12%; in data set [2] (test conc. 100 μM), 0 ± 0%. In addition, the uncoupling activity entry in data set [3] (50 μM in 0.1% DMSO (FIG. 19)) is “partial uncoupling”. In addition, the “Measured Uncoupling Activity (% uncoupling ± SEM @ 100 μM)” value in data set [3] (100 μM) is recorded as 71 ± 4 % uncoupling. In addition, the “Measured Uncoupling (% uncoupling ± SEM @ 100 μM)” value in data set [3] (100 μM) came to 71 ± 4 % uncoupling. The “Uncoupling (%)” value in data set [3] (test conc. 25 μM) came out at 26 ± 4%; in data set [3] (test conc. 100 μM), 71 ± 4%. For the same compound, the “increase in basal glucose uptake” value in data set [4] (at ⅛th of metformin's concentration (400 μM)) was 269%. For the same compound, in data set [4] (metformin 400 μM), the “effect on basal glucose uptake relative to metformin” value was “more than 6 fold”.
Regarding `COc1cc(/C=C/C(=O)CC(=O)/C=C/c2ccc(O)c(OC)c2)ccc1O` [curcumin], the entries for the “Inhibitory effect (%)” value in data set [2] (test conc. 25 μM) and in data set [2] (test conc. 100 μM) were 17% and 21%, respectively. Further, the “Residual capacity (%)” value was determined as 41 ± 9% in data set [2] (test conc. 25 μM) and 0 ± 0% in data set [2] (test conc. 100 μM). In addition, in the data set on C2C12 myotubes, the indications of cytotoxicity entry is “increased susceptibility to monolayer detachment”. Further, the “Uncoupling (%)” value in data set [3] (test conc. 25 μM) stood at 42 ± 8%; in data set [3] (test conc. 100 μM) it was 79 ± 6%.
Consider `O=C(/C=C/c1ccc(O)cc1)c1ccc(O)cc1O` [isoliquiritigenin], for which the “suppression of G6Pase activity” value in data set [1] is “exceeding the effect of metformin at 400 μM”. Besides, in data set [2] (test conc. 25 μM), the “Inhibitory effect (%)” value turned out to be 11% and the “Residual capacity (%)” value turned out to be 65 ± 6%. In addition, in data set [2] (test conc. 100 μM), the “Inhibitory effect (%)” value is 0% and the “Residual capacity (%)” value is reported as 0 ± 0%. Besides, the uncoupling activity result in data set [3] (100 μM, result in words) is on record as “complete uncoupling”. For the same compound, in data set [3] (100 μM), the “Measured Uncoupling Activity (% uncoupling ± SEM @ 100 μM)” value turned out to be 108 ± 7 % uncoupling and the “Measured Uncoupling (% uncoupling ± SEM @ 100 μM)” value is on record as above 100 % uncoupling. In addition, in data set [3] (test conc. 25 μM), the “Uncoupling (%)” value was 24 ± 3%. Further, in data set [3] (test conc. 100 μM), the “Uncoupling (%)” value is 108 ± 7%.
With `O=c1c(O)c(-c2ccc(O)cc2)oc2cc(O)cc(O)c12` [kaempferol], the “Inhibitory effect (%)” value in data set [2] (test conc. 25 μM) was determined as 28%; in data set [2] (test conc. 100 μM) it was 47%. For the same compound, the “Residual capacity (%)” value in data set [2] (test conc. 25 μM) is listed as 62 ± 5%; in data set [2] (test conc. 100 μM), 28 ± 4%. The indications of cytotoxicity entry in the data set with C2C12 myotubes is reported as “decreased uptake relative to vehicle-control levels”. Moreover, in data set [3] (100 μM), the “Measured Uncoupling Activity (% uncoupling ± SEM @ 100 μM)” value is 25 ± 2 % uncoupling. Besides, the “Uncoupling (%)” value was 10 ± 1% in data set [3] (test conc. 25 μM) and 25 ± 2% in data set [3] (test conc. 100 μM).
As to `CN(C)C(=N)N=C(N)N` [metformin], the “suppression of G6Pase activity per mg total protein” value in data set [1] (400 μM) stood at 56%. Besides, the “increase in basal glucose uptake” value in data set [4] (400 μM) came to 43%.

The values above are taken from US20140135359A1, “METHODS OF DESIGNING, PREPARING, AND USING NOVEL PROTONOPHORES” (priority 2012, published 2014).
